In patent publication US20260083865A1, “PROSTATE SPECIFIC MEMBRANE ANTIGEN (PSMA) LIGANDS AND USE THEREOF” (priority 2022, published 2026):
Numbered stars: 1 amine (or outer) side, 2 acyl side, 3 side chain; on linkers, the order of the positions; unused ones are H or OH. Bridge positions count the residues as written; N and C are the ends. Square brackets hold non-standard residues; d marks the D form. Peptide text beside a SMILES is read from it. * marks the point of attachment. TtdsdLys(DOTA)NH2 = NC(=O)[C@@H](CCCCNC(=O)CN1CCN(CC(=O)O)CCN(CC(=O)O)CCN(CC(=O)O)CC1)NC(=O)CCC(=O)NCCCOCCOCCOCCCN*; X3 = O=C(O)CN1CCN(CC(=O)O)CCN(CC(=O)NCCCOCCOCCOCCCN*)CCN(CC(=O)O)CC1; DOTA = O=C(O)CN1CCN(CC(=O)O)CCN(CC(=O)*)CCN(CC(=O)O)CC1; Ala(quinolin-3-yl) = N[C@@H](Cc1cnc2ccccc2c1)C(=O)O; Phe(4-Cl) = N[C@@H](Cc1ccc(Cl)cc1)C(=O)O; Arg(Me) = CNC(=N)NCCC[C@H](N)C(=O)O; NMeR = CN[C@@H](CCCNC(=N)N)C(=O)O; X1 = O=C(CC1CCN([*:1])CC1)[*:2]; Cit = NC(=O)NCCC[C@H](N)C(=O)O; Lys(Me) = CNCCCC[C@H](N)C(=O)O; Suc = O=C(CCC(=O)[*:2])[*:1]; Tle = CC(C)(C)[C@H](N)C(=O)O; Nle = CCCC[C@H](N)C(=O)O; Aib = CC(C)(N)C(=O)O; CH2 = C([*:1])[*:2]

What was measured:
[1] = target: T1, Fc-fusion protein of human PSMA (hPSMA-Fc) (Homo sapiens, UniProt Q04609); assay: Surface plasmon resonance assay (Biacore T200, single cycle kinetic); assay type: binding; conditions: PSMA SPR assay, hPSMA-Fc, 25° C.; pKD category; read-out: pKD CAT (converted)
T1 construct: purchased Acro Biosystems PSA-H5264
Summary of the method: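 KD, expressed as pKD, came from 1:1 Langmuir fits of reference- and buffer-blank-subtracted SPR data. The runs were single-cycle kinetics at 25° C in HBST/0.1% DMSO over human PSMA-Fc, captured to ~1000 RU on a peptide-coated CM5 surface and regenerated with 10 mM glycine pH 1.5.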

[2] = target: T2, PSMA-expressing C4-2 cells (Homo sapiens, UniProt Q04609); assay: FACS binding assay (competition with 50 nM PSM-0183); conditions: FACS binding, PSMA-expressing C4-2 cells; pIC50 category; read-out: pIC50 [C4-2] CAT (converted)
T2 construct: PSMA-expressing C4-2 cells (ATCC, Cat. No. CRL-3314) were cultured in RPMI-1640; host or cells: C4-2 cells
Summary of the method: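 Competition format: fluorescent tracer PSM-0183 (50 nM) displaced from PSMA on C4-2 cells by a test compound titration over 1 h at 4 °C. Bound tracer was quantified as flow-cytometric AF488 median fluorescence after washing. Four-parameter logistic fits of MFI data gave IC50 and pIC50.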

T1 sequence (Q04609 44-750 limits assumed): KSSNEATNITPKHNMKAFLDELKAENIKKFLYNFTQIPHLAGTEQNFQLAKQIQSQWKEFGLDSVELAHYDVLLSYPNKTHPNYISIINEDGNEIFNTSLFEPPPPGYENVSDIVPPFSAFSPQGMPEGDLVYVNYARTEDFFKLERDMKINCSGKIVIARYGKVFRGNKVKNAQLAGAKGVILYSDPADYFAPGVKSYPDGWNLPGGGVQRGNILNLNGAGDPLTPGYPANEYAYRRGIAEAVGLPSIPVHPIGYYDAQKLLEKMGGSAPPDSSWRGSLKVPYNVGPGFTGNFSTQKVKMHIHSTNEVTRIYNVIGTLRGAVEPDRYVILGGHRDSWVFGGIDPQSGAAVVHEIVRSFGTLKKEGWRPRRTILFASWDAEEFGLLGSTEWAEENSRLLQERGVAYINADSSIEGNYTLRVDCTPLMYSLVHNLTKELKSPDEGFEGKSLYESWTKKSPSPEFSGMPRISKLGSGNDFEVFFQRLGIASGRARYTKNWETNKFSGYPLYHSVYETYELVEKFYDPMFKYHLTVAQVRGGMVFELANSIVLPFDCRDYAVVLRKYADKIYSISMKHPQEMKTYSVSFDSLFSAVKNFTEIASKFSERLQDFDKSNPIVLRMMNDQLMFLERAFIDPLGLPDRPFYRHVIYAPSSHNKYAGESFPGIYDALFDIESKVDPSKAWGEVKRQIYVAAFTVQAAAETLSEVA
T2 sequence (Q04609 whole entry): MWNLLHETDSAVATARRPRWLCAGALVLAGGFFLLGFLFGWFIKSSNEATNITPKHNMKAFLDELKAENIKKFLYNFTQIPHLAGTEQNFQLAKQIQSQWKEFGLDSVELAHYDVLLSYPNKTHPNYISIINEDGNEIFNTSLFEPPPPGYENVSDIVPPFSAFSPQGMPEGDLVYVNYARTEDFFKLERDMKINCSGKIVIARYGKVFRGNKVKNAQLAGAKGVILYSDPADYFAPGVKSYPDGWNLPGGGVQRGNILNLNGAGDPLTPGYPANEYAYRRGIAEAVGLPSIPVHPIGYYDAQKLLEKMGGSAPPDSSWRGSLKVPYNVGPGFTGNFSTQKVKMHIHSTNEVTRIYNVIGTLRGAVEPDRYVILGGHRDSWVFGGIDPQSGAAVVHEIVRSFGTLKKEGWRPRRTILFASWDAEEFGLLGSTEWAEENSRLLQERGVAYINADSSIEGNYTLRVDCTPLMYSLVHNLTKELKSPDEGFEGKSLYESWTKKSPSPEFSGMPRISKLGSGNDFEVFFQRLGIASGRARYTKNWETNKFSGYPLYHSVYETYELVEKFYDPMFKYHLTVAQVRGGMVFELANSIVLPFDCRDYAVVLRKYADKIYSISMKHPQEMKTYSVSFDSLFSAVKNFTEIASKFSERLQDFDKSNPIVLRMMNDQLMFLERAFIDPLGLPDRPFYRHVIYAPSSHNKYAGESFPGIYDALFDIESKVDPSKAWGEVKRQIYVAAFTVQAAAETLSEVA

Row | Compound | Kd [1] | IC50 [2]
1 | CC(=O)N[C@H](C(=O)N[C@@H](C)C(=O)N[C@@H](Cc1ccccc1)C(=O)N[C@H]1CSSC[C@@H](C(=O)N[C@@H](CC(C)C)C(=O)N[C@H](C(=O)N[C@@H](CC(=O)O)C(=O)NCCCOCCOCCOCCCNC(=O)CCC(=O)N[C@H](CCCCNC(=O)CN2CCN(CC(=O)O)CCN(CC(=O)O)CCN(CC(=O)O)CC2)C(N)=O)[C@@H](C)O)NC(=O)[C@H](CC(N)=O)NC(=O)[C@H](C)NC(=O)[C@H](CCCNC(=N)N)NC(=O)[C@H](CCCCN)NC1=O)[C@@H](C)O [PSM-0330, Ac-Thr-Ala-Phe-[Cys-Lys-Arg-Ala-Asn-Cys]-Leu-Thr-Asp-Ttds-lys(DOTA)-NH2] (Ac-TAFCKRANCLTD-{TtdsdLys(DOTA)NH2}; disulfide 4-9) | 12.6 to 126 nM | 200 to 1260 nM
2 | CC(=O)N[C@H](C(=O)NC(C)(C)C(=O)N[C@@H](Cc1ccccc1)C(=O)N[C@H]1CSSC[C@H](C(=O)N[C@H](C(=O)N[C@H](C(N)=O)[C@@H](C)O)C(C)(C)C)NC(=O)[C@H](CC(N)=O)NC(=O)C(C)(C)NC(=O)[C@H](CCCNC(=N)N)NC(=O)[C@H](CCCCN)NC1=O)[C@@H](C)O [PSM-0331, Ac-Thr-Aib-Phe-[Cys-Lys-Arg-Aib-Asn-cys]-Tle-Thr-NH2] (Ac-T[Aib]FCKR[Aib]N[dC][Tle]T-NH2; disulfide 4-9) | > 501 nM | 200 to 1260 nM
3 | C[C@@H](O)[C@H](NC(=O)CC1CCN(C(=O)CN2CCN(CC(=O)O)CCN(CC(=O)O)CCN(CC(=O)O)CC2)CC1)C(=O)NC(C)(C)C(=O)N[C@@H](Cc1ccc(Cl)cc1)C(=O)N[C@H]1CSCSC[C@@H](C(=O)N[C@H](C(N)=O)C(C)(C)C)NC(=O)[C@H](CC(N)=O)NC(=O)C(C)(C)NC(=O)[C@H](CCCNC(=N)N)NC(=O)[C@H](CCCCN)NC1=O [PSM-0332, DOTA-Cmp-Thr-Aib-Pcf-[Smc-Lys-Arg-Aib-Asn-Cys]-Tle-NH2] ({DOTA}-[X1]T[Aib][Phe(4-Cl)]CKR[Aib]NC[Tle]-NH2; linker 5-10 via CH2) | < 12.6 nM | < 200 nM
4 | CC(=O)N[C@H](C(=O)NC(C)(C)C(=O)N[C@@H](Cc1ccccc1)C(=O)N[C@H]1CSSC[C@@H](C(=O)N[C@H](C(=O)N[C@H](C(=O)N[C@@H](CC(=O)O)C(N)=O)[C@@H](C)O)C(C)(C)C)NC(=O)[C@H](CC(N)=O)NC(=O)C(C)(C)NC(=O)[C@H](CCC(N)=O)NC(=O)[C@H](CCCCN)NC1=O)[C@@H](C)O [PSM-0334, Ac-Thr-Aib-Phe-[Cys-Lys-Gln-Aib-Asn-Cys]-Tle-Thr-Asp-NH2] (Ac-T[Aib]FCKQ[Aib]NC[Tle]TD-NH2; disulfide 4-9) | 12.6 to 126 nM | < 200 nM
5 | CCCC[C@H](NC(=O)[C@@H]1CSSC[C@H](NC(=O)[C@H](Cc2ccccc2)NC(=O)[C@H](C)NC(=O)[C@@H](NC(C)=O)[C@@H](C)O)C(=O)N[C@@H](CCCCN)C(=O)N[C@@H](CCCNC(=N)N)C(=O)N[C@@H](C)C(=O)N[C@@H](C)C(=O)N1)C(=O)N[C@H](C(=O)N[C@@H](CC(=O)O)C(N)=O)[C@@H](C)O [PSM-0335, Ac-Thr-Ala-Phe-[Cys-Lys-Arg-Ala-Ala-Cys]-Nle-Thr-Asp-NH2] (Ac-TAFCKRAAC[Nle]TD-NH2; disulfide 4-9) | 12.6 to 126 nM | 1260 to 3160 nM
6 | CC(=O)N[C@H](C(=O)NC(C)(C)C(=O)N[C@@H](Cc1ccc(Cl)cc1)C(=O)N[C@H]1CSSC[C@@H](C(=O)N[C@H](C(=O)N[C@H](C(N)=O)[C@@H](C)O)C(C)(C)C)NC(=O)[C@H](CC(N)=O)NC(=O)C(C)(C)NC(=O)[C@H](CCCNC(=N)N)NC(=O)[C@H](CCCCN)NC1=O)[C@@H](C)O [PSM-0336, Ac-Thr-Aib-Pcf-[Cys-Lys-Arg-Aib-Asn-Cys]-Tle-Thr-NH2] (Ac-T[Aib][Phe(4-Cl)]CKR[Aib]NC[Tle]T-NH2; disulfide 4-9) | < 12.6 nM | < 200 nM
7 | CCCC[C@@H]1NC(=O)[C@H](CCCCN)NC(=O)[C@@H](NC(=O)[C@H](Cc2ccc(Cl)cc2)NC(=O)C(C)(C)NC(=O)[C@@H](NC(C)=O)[C@@H](C)O)CSSC[C@@H](C(=O)N[C@H](C(=O)N[C@H](C(N)=O)[C@@H](C)O)C(C)(C)C)NC(=O)[C@H](CC(N)=O)NC(=O)C(C)(C)NC1=O [PSM-0338, Ac-Thr-Aib-Pcf-[Cys-Lys-Nle-Aib-Asn-Cys]-Tle-Thr-NH2] (Ac-T[Aib][Phe(4-Cl)]CK[Nle][Aib]NC[Tle]T-NH2; disulfide 4-9) | < 12.6 nM | < 200 nM
8 | C[C@@H]1NC(=O)[C@H](CCCNC(=N)N)NC(=O)[C@H](CCCCN)NC(=O)[C@@H](NC(=O)[C@H](Cc2ccccc2)NC(=O)[C@H](C)NC(=O)[C@@H](NC(=O)CCC(=O)NCCCOCCOCCOCCCNC(=O)CN2CCN(CC(=O)O)CCN(CC(=O)O)CCN(CC(=O)O)CC2)[C@@H](C)O)CSSC[C@@H](C(=O)N[C@H](C(=O)N[C@H](C(=O)N[C@@H](CC(=O)O)C(N)=O)[C@@H](C)O)C(C)(C)C)NC(=O)[C@H](CC(N)=O)NC1=O [PSM-0342, DOTA-Ttds-Thr-Ala-Phe-[Cys-Lys-Arg-Ala-Asn-Cys]-Tle-Thr-Asp-NH2] ({X3-Suc}-TAFCKRANC[Tle]TD-NH2; disulfide 4-9) | 12.6 to 126 nM | < 200 nM

Results, then the compound that gave them:

Row | Kd [1] | IC50 [2] | Compound
9 | > 501 nM | > 3160 nM | C[C@@H](O)[C@H](NC(=O)[C@@H](NC(=O)[C@@H]1CSSC[C@H](NC(=O)[C@H](Cc2cnc3ccccc3c2)NC(=O)C(C)(C)NC(=O)[C@@H](NC(=O)CC2CCN(C(=O)CN3CCN(CC(=O)O)CCN(CC(=O)O)CCN(CC(=O)O)CC3)CC2)[C@@H](C)O)C(=O)N[C@@H](CCCCN)C(=O)N[C@@H](CCCNC(N)=O)C(=O)NC(C)(C)C(=O)N[C@@H](CC(N)=O)C(=O)N1)C(C)(C)C)C(N)=O [PSM-0333, DOTA-Cmp-Thr-Aib-2Qi-[Cys-Lys-Cit-Aib-Asn-Cys]-Tle-Thr-NH2] ({DOTA}-[X1]T[Aib][Ala(quinolin-3-yl)]CK[Cit][Aib]NC[Tle]T-NH2; disulfide 5-10)
10 | > 501 nM | 1260 to 3160 nM | CNCCCC[C@@H]1NC(=O)[C@@H](NC(=O)[C@H](Cc2cnc3ccccc3c2)NC(=O)C(C)(C)NC(=O)[C@@H](NC(=O)CC2CCN(C(=O)CN3CCN(CC(=O)O)CCN(CC(=O)O)CCN(CC(=O)O)CC3)CC2)[C@@H](C)O)CSSC[C@@H](C(=O)N[C@H](C(=O)N[C@H](C(N)=O)[C@@H](C)O)C(C)(C)C)NC(=O)[C@H](CC(N)=O)NC(=O)C(C)(C)NC(=O)[C@H](CCCNC(=N)NC)NC1=O [PSM-0337, DOTA-Cmp-Thr-Aib-2Qi-[Cys-Lys(Me)-Arg(Me)-Aib-Asn-Cys]-Tle-Thr-NH2] ({DOTA}-[X1]T[Aib][Ala(quinolin-3-yl)]C[Lys(Me)][Arg(Me)][Aib]NC[Tle]T-NH2; disulfide 5-10)
11 | < 12.6 nM | 200 to 1260 nM | C[C@@H](O)[C@H](NC(=O)[C@@H](NC(=O)[C@@H]1CSSC[C@H](NC(=O)[C@H](Cc2ccc(Cl)cc2)NC(=O)C(C)(C)NC(=O)[C@@H](NC(=O)CC2CCN(C(=O)CN3CCN(CC(=O)O)CCN(CC(=O)O)CCN(CC(=O)O)CC3)CC2)[C@@H](C)O)C(=O)N[C@@H](CCCCN)C(=O)N(C)[C@@H](CCCNC(=N)N)C(=O)NC(C)(C)C(=O)N[C@@H](CC(N)=O)C(=O)N1)C(C)(C)C)C(N)=O [PSM-0340, DOTA-Cmp-Thr-Aib-Pcf-[Cys-Lys-Nmr-Aib-Asn-Cys]-Tle-Thr-NH2] ({DOTA}-[X1]T[Aib][Phe(4-Cl)]CK[NMeR][Aib]NC[Tle]T-NH2; disulfide 5-10)
12 | < 12.6 nM | 200 to 1260 nM | CC(=O)NCCCC[C@@H]1NC(=O)[C@H](CCCCN)NC(=O)[C@@H](NC(=O)[C@H](Cc2ccc(Cl)cc2)NC(=O)C(C)(C)NC(=O)[C@@H](NC(=O)CC2CCN(C(=O)CN3CCN(CC(=O)O)CCN(CC(=O)O)CCN(CC(=O)O)CC3)CC2)[C@@H](C)O)CSSC[C@@H](C(=O)N[C@H](C(=O)N[C@H](C(N)=O)[C@@H](C)O)C(C)(C)C)NC(=O)[C@H](CC(N)=O)NC(=O)C(C)(C)NC1=O [PSM-0341, DOTA-Cmp-Thr-Aib-Pcf-[Cys-Lys-Lys(Ac)-Aib-Asn-Cys]-Tle-Thr-NH2] ({DOTA}-[X1]T[Aib][Phe(4-Cl)]CKK(Ac)[Aib]NC[Tle]T-NH2; disulfide 5-10)
13 | > 501 nM | > 3160 nM | C[C@@H](O)[C@H](NC(=O)[C@@H](NC(=O)[C@@H]1CSSC[C@H](NC(=O)[C@H](Cc2ccc(Cl)cc2)NC(=O)[C@@H](CCC(=O)O)NC(=O)[C@@H](NC(=O)CC2CCN(C(=O)CN3CCN(CC(=O)O)CCN(CC(=O)O)CCN(CC(=O)O)CC3)CC2)[C@@H](C)O)C(=O)N[C@@H](CCCCN)C(=O)N[C@@H](CCCNC(=N)N)C(=O)NC(C)(C)C(=O)N[C@@H](CC(N)=O)C(=O)N1)C(C)(C)C)C(N)=O [PSM-0343, DOTA-Cmp-Thr-glu-Pcf-[Cys-Lys-Arg-Aib-Asn-Cys]-Tle-Thr-NH2] ({DOTA}-[X1]T[dE][Phe(4-Cl)]CKR[Aib]NC[Tle]T-NH2; disulfide 5-10)
14 | < 12.6 nM | < 200 nM | CNC(=N)NCCC[C@@H]1NC(=O)[C@H](CCCCN)NC(=O)[C@@H](NC(=O)[C@H](Cc2ccc(Cl)cc2)NC(=O)C(C)(C)NC(=O)[C@@H](NC(=O)CC2CCN(C(=O)CN3CCN(CC(=O)O)CCN(CC(=O)O)CCN(CC(=O)O)CC3)CC2)[C@@H](C)O)CSSC[C@@H](C(=O)N[C@H](C(N)=O)C(C)(C)C)NC(=O)[C@H](CC(N)=O)NC(=O)C(C)(C)NC1=O [PSM-0345, DOTA-Cmp-Thr-Aib-Pcf-[Cys-Lys-Arg(Me)-Aib-Asn-Cys]-Tle-NH2] ({DOTA}-[X1]T[Aib][Phe(4-Cl)]CK[Arg(Me)][Aib]NC[Tle]-NH2; disulfide 5-10)
